Values quoted from earlier work in patent US20160074320A1, “PHARMACEUTICAL COMPOSTIONS COMPRISING KISSPEPTIN OR DERIVATIVES THEREOF” (OURO FINO SAÚDE ANIMAL LTDA, priority 2013, published 2016).
Ends that are not written are not given here.

Tests used:
[1] = tested on: prepubertal heifers
[2] = tested on: sheep; conditions: sheep in anestrus, low and sustained (30 to 48 h) doses IV
[3] = tested on: sheep; conditions: Kp-10 applied 30 h after removal of intra-vaginal progesterone device (CIDR)

Kp-10: 10 amino acid fragment cleaved from kisspeptin, the 145 amino acid protein encoded by Kiss-1 gene (YNWNSFGLRF; ends and bridges not checked; UniProt Q15726 112-121, looked up, fragment)
hormone release ([1]; IV administration): induces the release of LH and growth hormone (GH) | LH pulses (Redmond and collaborators) ([1]; IV injections): increase of frequency and amplitude of the pulses of LH | ovulation, share of animals [2]: more than 80% | peak of LH, time after removal of CIDR [3]: ~32 h
